Experimental data reported in PubChem BioAssay (NCI).
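Exposure lasted 48 hours, with cells grown in 96-well plates and compounds tested at five concentrations. TGI is the concentration that stops growth completely.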

Assays:
Assay in all cases: inhibition of tumour cell growth, NCI panel, 48 h
[1] = test system: SR leukemia
[2] = test system: MALME-3M melanoma
[3] = test system: A498 renal
[4] = test system: NCI-H23 lung
[5] = test system: NCI/ADR-RES ovarian
[6] = test system: MOLT-4 leukemia
[7] = test system: HL-60(TB) leukemia
[8] = test system: SF-295 CNS
[9] = test system: HCT-116 colon
[10] = test system: 786-0 renal
[11] = test system: HS 578T breast
[12] = test system: OVCAR-4 ovarian
[13] = test system: SN12C renal
[14] = test system: M14 melanoma
[15] = test system: OVCAR-8 ovarian
[16] = test system: OVCAR-5 ovarian
[17] = test system: CCRF-CEM leukemia
[18] = test system: NCI-H460 lung
[19] = test system: SNB-19 CNS
[20] = test system: HT29 colon
[21] = test system: SK-MEL-5 melanoma
[22] = test system: SNB-75 CNS
[23] = test system: BT-549 breast
[24] = test system: NCI-H226 lung
[25] = test system: DU-145 prostate
[26] = test system: COLO 205 colon
[27] = test system: KM12 colon
[28] = test system: HCT-15 colon
[29] = test system: EKVX NSCLC
[30] = test system: SK-MEL-2 melanoma
[31] = test system: MDA-MB-435
[32] = test system: UACC-62 melanoma
[33] = test system: K-562 leukemia
[34] = test system: RPMI-8226 leukemia
[35] = test system: OVCAR-3 ovarian
[36] = test system: SF-539 CNS
[37] = test system: PC-3 prostate
[38] = test system: MDA-MB-231 breast
[39] = test system: UACC-257 melanoma
[40] = test system: ACHN renal
[41] = test system: SF-268 CNS
[42] = test system: HCC-2998 colon
[43] = test system: U251 CNS
[44] = test system: SK-MEL-28 melanoma
[45] = test system: NCI-H522 lung
[46] = test system: SW-620 colon
[47] = test system: IGROV1 ovarian
[48] = test system: HOP-62 NSCLC
[49] = test system: LOX IMVI melanoma
[50] = test system: RXF 393 renal
[51] = test system: T-47D breast
[52] = test system: UO-31 renal
[53] = test system: A549 NSCLC
[54] = test system: HOP-92 NSCLC
[55] = test system: MDA-N
[56] = test system: CAKI-1 renal
[57] = test system: MCF7 breast
[58] = test system: TK-10 renal
[59] = test system: SK-OV-3 ovarian

`CCCOc1cc2c(cc1O)CC[C@@H]1[C@@H]2CC[C@]2(C)[C@@H](O)CC[C@@H]12` was tested, and the TGI [1] was 16.7 µM, the TGI [2] was > 100 µM and the TGI [3] was 20.7 µM. For the same compound, the TGI [4] was > 55.5 µM, the TGI [5] was 39 µM and the TGI [6] was 14.2 µM. It also gave a TGI [7] of 18.9 µM, a TGI [8] of 14.7 µM and a TGI [9] of 42 µM. The TGI [10] was 30.5 µM, the TGI [11] was 11.3 µM and the TGI [12] was > 65.5 µM. The TGI [13] was 37.8 µM, the TGI [14] was 36.8 µM and the TGI [15] was > 59.1 µM. The TGI [16] was > 65.4 µM, the TGI [17] was > 37.4 µM and the TGI [18] was 26.5 µM. For the same compound, the TGI [19] was > 100 µM, the TGI [20] was 25.9 µM and the TGI [21] was 12.1 µM. For the same compound, the TGI [22] was 32.4 µM, the TGI [23] was 20.1 µM and the TGI [24] was 55 µM. The TGI [25] was 27.2 µM, the TGI [26] was 30 µM and the TGI [27] was > 55.5 µM. For the same compound, the TGI [28] was > 35.3 µM, the TGI [29] was > 57.7 µM and the TGI [30] was 11.3 µM. It also gave a TGI [31] of 5.91 µM, a TGI [32] of 30.8 µM and a TGI [33] of 5.33 µM. For the same compound, the TGI [34] was 23.7 µM, the TGI [35] was > 46.2 µM and the TGI [36] was 4.44 µM. The TGI [37] was > 51.6 µM, the TGI [38] was 27.7 µM and the TGI [39] was > 58.7 µM. The TGI [40] was > 56.2 µM, the TGI [41] was > 59.7 µM and the TGI [42] was 17.6 µM. For the same compound, the TGI [43] was 34.2 µM, the TGI [44] was > 50.4 µM and the TGI [45] was 3.52 µM. The TGI [46] was > 35.5 µM, the TGI [47] was > 100 µM and the TGI [48] was 14.1 µM. For the same compound, the TGI [49] was 34.5 µM, the TGI [50] was 10.4 µM and the TGI [51] was > 45 µM. The TGI [52] was > 57.2 µM, the TGI [53] was > 56.3 µM and the TGI [54] was > 60.4 µM. The TGI [55] was 2.14 µM, the TGI [56] was 23.5 µM and the TGI [57] was 37.2 µM. For the same compound, the TGI [58] was 54.7 µM and the TGI [59] was 50.5 µM.

`Cc1ccc(C(=O)CCl)o1` was tested, and the TGI [1] was > 10 µM, the TGI [2] was > 8.31 µM and the TGI [3] was > 10 µM. The TGI [4] was > 10 µM, the TGI [5] was > 10 µM and the TGI [6] was 5.68 µM. For the same compound, the TGI [7] was 4.22 µM, the TGI [8] was > 10 µM and the TGI [9] was 6.62 µM. The TGI [10] was 9.71 µM, the TGI [11] was > 10 µM and the TGI [12] was > 10 µM. The TGI [13] was > 10 µM, the TGI [14] was > 10 µM and the TGI [15] was > 6.61 µM. The TGI [16] was > 9.57 µM, the TGI [17] was > 7.83 µM and the TGI [18] was > 10 µM. The TGI [19] was > 10 µM, the TGI [20] was > 10 µM and the TGI [21] was > 10 µM. The TGI [22] was > 10 µM, the TGI [23] was > 10 µM and the TGI [24] was > 10 µM. For the same compound, the TGI [25] was > 10 µM, the TGI [26] was > 8.18 µM and the TGI [27] was > 10 µM. For the same compound, the TGI [28] was > 10 µM, the TGI [29] was > 10 µM and the TGI [30] was > 10 µM. The TGI [31] was > 10 µM, the TGI [32] was > 10 µM and the TGI [33] was > 10 µM. The TGI [34] was 5.42 µM, the TGI [35] was > 10 µM and the TGI [36] was > 10 µM. For the same compound, the TGI [37] was > 10 µM, the TGI [38] was > 10 µM and the TGI [39] was > 10 µM. For the same compound, the TGI [40] was > 10 µM, the TGI [41] was > 10 µM and the TGI [42] was > 10 µM. The TGI [43] was > 10 µM, the TGI [44] was > 10 µM and the TGI [45] was > 5.46 µM. The TGI [46] was 5 µM, the TGI [47] was > 10 µM and the TGI [48] was > 10 µM. The TGI [49] was 8.76 µM, the TGI [50] was > 10 µM and the TGI [51] was > 7.79 µM. For the same compound, the TGI [52] was > 6.21 µM, the TGI [53] was > 10 µM and the TGI [54] was > 10 µM. The TGI [55] was > 10 µM, the TGI [56] was > 7.23 µM and the TGI [57] was > 10 µM. The TGI [58] was > 10 µM and the TGI [59] was > 10 µM.

`C[C@]12CC[C@H](O)C[C@@H]1CC[C@@H]1[C@@H]2CC[C@]2(C)[C@@H](c3cc(C(F)(F)F)n[nH]3)CC[C@@H]12` was tested, and the TGI [1] was 15.3 µM, the TGI [2] was > 53.3 µM and the TGI [3] was 21.1 µM. For the same compound, the TGI [4] was 24.7 µM, the TGI [5] was 23.3 µM and the TGI [6] was 19.7 µM. The TGI [7] was 2.89 µM, the TGI [8] was 16.9 µM and the TGI [9] was 14 µM. For the same compound, the TGI [10] was 17 µM, the TGI [11] was > 58.9 µM and the TGI [12] was 20.2 µM. It also gave a TGI [13] of 21.7 µM, a TGI [14] of 23.9 µM and a TGI [15] of 21 µM. For the same compound, the TGI [16] was 23.5 µM, the TGI [17] was 5.43 µM and the TGI [18] was 15.3 µM. The TGI [19] was 28.3 µM, the TGI [20] was 18.4 µM and the TGI [21] was 19.6 µM. For the same compound, the TGI [22] was 24.5 µM, the TGI [23] was 23 µM and the TGI [24] was 36.7 µM. It also gave a TGI [25] of 22.9 µM, a TGI [26] of 16.2 µM and a TGI [27] of 25.6 µM. For the same compound, the TGI [28] was 24.3 µM, the TGI [29] was 28.2 µM and the TGI [30] was 33.1 µM. The TGI [31] was 22.9 µM, the TGI [32] was 27.4 µM and the TGI [33] was 15.3 µM. The TGI [34] was 22.7 µM, the TGI [35] was 24.8 µM and the TGI [36] was 22.5 µM. For the same compound, the TGI [37] was 20.7 µM, the TGI [38] was 18.9 µM and the TGI [39] was 16.8 µM. For the same compound, the TGI [40] was 20 µM, the TGI [41] was > 53.6 µM and the TGI [42] was 34.4 µM. For the same compound, the TGI [43] was 24.1 µM, the TGI [44] was 26.9 µM and the TGI [45] was > 43.8 µM. It also gave a TGI [46] of 37.3 µM, a TGI [47] of 19.8 µM and a TGI [48] of 23 µM. It also gave a TGI [49] of 21.7 µM, a TGI [50] of 16.5 µM and a TGI [51] of 23.6 µM. It also gave a TGI [52] of 3.1 µM, a TGI [53] of 23.1 µM and a TGI [54] of 9.07 µM. It also gave a TGI [55] of 25.4 µM, a TGI [56] of 26.9 µM and a TGI [57] of 21.1 µM. It also gave a TGI [58] of 16 µM and a TGI [59] of 28.4 µM.
